{"source": "patent US12643871B2", "about": "“Aryl formamide compound containing chiral sulfur oxide or salt thereof, preparation method, herbicidal composition and use thereof” (Qingdao Kingagroot Chemical Compound Co., Ltd., priority 2019, dated 2026)", "key": {"[1]": {"system": "Abutilon theophrasti", "experiment": "Weeding effect in post-emergence stage", "assay_type": "in vivo", "conditions": "250 g/ha; 2 leaf stage; 15 days after application; fresh weight control rate", "procedure,_shortened": "(§1)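 Reported levels reflect fresh weight growth control rate banded 0 (<5%) through 5 (>85%), averaged over three repetitions. Treatment: foliar spray of 2-leaf-stage greenhouse plants at 15 to 500 g/ha, with 1.5 liter/ha methyl oleate synergist; assessment 15 days after application.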"}, "[2]": {"system": "Amaranthus retroflexus", "experiment": "Weeding effect in post-emergence stage", "assay_type": "in vivo", "conditions": "250 g/ha; 2 leaf stage; 15 days after application; fresh weight control rate", "procedure,_shortened": "as §1"}, "[3]": {"system": "Digitaria sanguinalis", "experiment": "Weeding effect in post-emergence stage", "assay_type": "in vivo", "conditions": "250 g/ha; 2 leaf stage; 15 days after application; fresh weight control rate", "procedure,_shortened": "as §1"}, "[4]": {"system": "Echinochloa crusgali", "experiment": "Weeding effect in post-emergence stage", "assay_type": "in vivo", "conditions": "250 g/ha; 2 leaf stage; 15 days after application; fresh weight control rate", "procedure,_shortened": "as §1"}, "[5]": {"system": "Setaria viridis", "experiment": "Weeding effect in post-emergence stage", "assay_type": "in vivo", "conditions": "250 g/ha; 2 leaf stage; 15 days after application; fresh weight control rate", "procedure,_shortened": "as §1"}, "[6]": {"system": "Echinochloa crusgali", "experiment": "Weed control effect evaluation in rice field", "assay_type": "in vivo", "conditions": "60 g/ha; rice field pot, 14 days after treatment; ALS-inhibitor resistant weed from Heilongjiang", "from_the_text": "(§2) The activity level criteria for harmful plant damage (i.e., growth control rate) are as follows: • Level 5: growth control rate is above 85%; • Level 4: growth control rate is greater than or equal to 60% and less than 85%; • Level 3: growth control rate is greater than or equal to 40% and less than 60%; • Level 2: growth control rate is greater than or equal to 20% and less than 40%; • Level 1: growth control rate is greater than or equal to 5% and less than 20%; • Level 0: growth control rate is less than 5%.\n(§3) Rice field soil was loaded into a 1/1,000,000 ha pot. The seeds of Echinochloa crusgali, Scirpus juncoides, Bidens tripartita, Sagittaria trifolia, Monochoria vaginalis and Leptochloa chinensis were sowed and gently covered with soil, then left to stand still in greenhouse in the state of 0.5-1 cm of water storage. The tuber of Sagittaria trifolia was planted in the next day or 2 days later. It was kept at 3-4 cm of water storage thereafter. The weeds were treated by dripping the WP or SC water diluents prepared according to the common preparation method of the compounds of the present invention with pipette homogeneously to achieve specified effective amount when Echinochloa crusgali, Scirpus juncoides, Bidens tripartita, Monochoria vaginalis and Leptochloa chinensis reached 0.5 leaf stage and Sagittaria trifolia reached the time point of primary leaf stage.\n(§4) The fertility condition of Echinochloa crusgali, Scirpus juncoides, Bidens tripartita, Leptochloa chinensis, Sagittaria trifolia and Monochoria vaginalis 14 days after the treatment of the compound of the invention and the fertility condition of rice 21 days after the treatment of the compound of the invention respectively with the naked eye. Evaluate the weed control effect with 0-5 activity standard level. Many compounds show excellent activity and selectivity."}, "[7]": {"system": "Leptochloa chinensis", "experiment": "Weed control effect evaluation in rice field", "assay_type": "in vivo", "conditions": "60 g/ha; rice field pot, 14 days after treatment", "from_the_text": "as §2, §3, §4"}, "[8]": {"system": "Monochoria vaginalis", "experiment": "Weed control effect evaluation in rice field", "assay_type": "in vivo", "conditions": "60 g/ha; rice field pot, 14 days after treatment; ALS-inhibitor resistant weed from Heilongjiang", "from_the_text": "as §2, §3, §4"}, "[9]": {"system": "Sagittaria trifolia", "experiment": "Weed control effect evaluation in rice field", "assay_type": "in vivo", "conditions": "60 g/ha; rice field pot, 14 days after treatment; ALS-inhibitor resistant weed from Heilongjiang", "from_the_text": "as §2, §3, §4"}, "[10]": {"system": "Rice", "experiment": "Transplanted rice safety evaluation", "assay_type": "in vivo, rice (japonica rice/Indica rice)", "conditions": "60 g/ha; transplanted 3 leaf stage rice, 21 days after treatment", "from_the_text": "as §2\nIn addition, the rice field soil that loaded into the 1/1,000,000 ha pot was leveled to keep water storage at 3-4 cm depth. The 3 leaf stage rice (japonica rice/Indica rice) was transplanted at 3 cm of transplanting depth the next day. The compound of the present invention was treated by the same way after 5 days of transplantation.\nas §4"}}}
{"smiles": "CC[S@@+]([O-])c1c(C(F)(F)F)ccc(C(=O)Nc2nnc(C)o2)c1SC", "note": "[Compound 548]", "values": [{"measurement": "weeding effect in post-emergence stage, activity level (growth control rate), Abutilon theophrasti", "setting": "[1]", "result": "5 (Level 5: growth control rate is above 85%)"}, {"measurement": "weeding effect in post-emergence stage, activity level (growth control rate), Amaranthus retroflexus", "setting": "[2]", "result": "5 (Level 5: growth control rate is above 85%)"}, {"measurement": "weeding effect in post-emergence stage, activity level (growth control rate), Digitaria sanguinalis", "setting": "[3]", "result": "5 (Level 5: growth control rate is above 85%)"}, {"measurement": "weeding effect in post-emergence stage, activity level (growth control rate), Echinochloa crusgali", "setting": "[4]", "result": "5 (Level 5: growth control rate is above 85%)"}, {"measurement": "weeding effect in post-emergence stage, activity level (growth control rate), Setaria viridis", "setting": "[5]", "result": "5 (Level 5: growth control rate is above 85%)"}, {"measurement": "Herbicidal effects of compounds, Echinochloa crusgali, 0-5 activity standard level", "setting": "[6]", "result": "5 (Level 5: growth control rate is above 85%)"}, {"measurement": "Herbicidal effects of compounds, Leptochloa chinensis, 0-5 activity standard level", "setting": "[7]", "result": "5 (Level 5: growth control rate is above 85%)"}, {"measurement": "Herbicidal effects of compounds, Monochoria vaginalis, 0-5 activity standard level", "setting": "[8]", "result": "5 (Level 5: growth control rate is above 85%)"}, {"measurement": "Herbicidal effects of compounds, Sagittaria trifolia, 0-5 activity standard level", "setting": "[9]", "result": "5 (Level 5: growth control rate is above 85%)"}, {"measurement": "Herbicidal effects of compounds, Rice, 0-5 activity standard level", "setting": "[10]", "result": "0 (Level 0: growth control rate is less than 5%)"}]}
